Measurements taken from PubChem BioAssay AID1259408 (Genetic Toxicology Data Bank (GENE-TOX), 2018).
Calls of active or inactive are those of the source. How the calls were made is not given here.

Test system: GENE-TOX genotoxicity assays, various organisms and cells
Test: GENE-TOX mutagenicity studies
Details: for call: Assay Type: In vivo carcinogenicity studies
[1] = Species/Cell Type: Nonhuman, Assay Type: Sister-chromatid exchange (SCE) in vivo, Assay Code: SC3T, Evaluation Type: Evaluation B (Post-1980)
[2] = Species/Cell Type: Salmonella typhimurium (one or more of the five standard strains: TA98, TA100, TA1535, TA1537, and TA1538), Assay Type: Histidine reverse gene mutation, Ames assay, Assay Code: SALT, Evaluation Type: Evaluation A (Pre-1980)
[3] = Species/Cell Type: Human, Assay Type: Sister-chromatid exchange (SCE) in vitro, Assay Code: SC1T, Evaluation Type: Evaluation B (Post-1980)
[4] = Species/Cell Type: Escherichia coli polA (W3119 vs P3478), Assay Type: Rec-assay, DNA effects (bacterial DNA repair), Assay Code: RE1+, Evaluation Type: Evaluation A (Pre-1980)
[5] = Species/Cell Type: Nonhuman, Assay Type: Sister-chromatid exchange (SCE) in vitro, Assay Code: SC2+D, Dose Response: With dose response, Evaluation Type: Evaluation B (Post-1980)
[6] = Species/Cell Type: Mammalian polychromatic erythrocytes, Assay Type: Micronucleus test, chromosome aberrations, Assay Code: MNTT, Evaluation Type: Evaluation A (Pre-1980)
[7] = Species/Cell Type: Mammalian polychromatic erythrocytes, Assay Type: Micronucleus test, chromosome aberrations, Assay Code: MNTT, Evaluation Type: Evaluation B (Post-1980)
[8] = Species/Cell Type: Nonhuman, Assay Code: CCG+, Evaluation Type: Evaluation A (Pre-1980)
[9] = Species/Cell Type: Salmonella typhimurium (one or more of the five standard strains: TA98, TA100, TA1535, TA1537, and TA1538), Assay Type: Histidine reverse gene mutation, Ames assay, Assay Code: SAL+, Evaluation Type: Evaluation A (Pre-1980)
[10] = Species/Cell Type: Drosophila melanogaster, Assay Type: Sex-linked recessive lethal gene mutation, Assay Code: SRLT, Evaluation Type: Evaluation A (Pre-1980)

COc1c2occc2cc2ccc(=O)oc12
mutagenic call (Species/Cell Type: Aspergillus nidulans, Assay Type: Aneuploidy, chromosome aberrations, Assay Code: ASN-, Evaluation Type: Evaluation A (Pre-1980)): inactive; negative | mutagenic call (Species/Cell Type: Aspergillus nidulans, Assay Type: Forward gene mutation, Assay Code: ASFT, Evaluation Type: Evaluation A (Pre-1980)): no conclusion | mutagenic call (Species/Cell Type: Human lymphocytes, Assay Type: Sister-chromatid exchange (SCE) in vitro, Assay Code: SCL+, Evaluation Type: Evaluation B (Post-1980)): active; positive | mutagenic call (Species/Cell Type: Human lymphocytes, Assay Type: Sister-chromatid exchange (SCE) in vitro, Assay Code: SCLT, Evaluation Type: Evaluation A (Pre-1980)): no conclusion | mutagenic call (Species/Cell Type: Human, Assay Type: Sister-chromatid exchange (SCE) in vitro, Assay Code: SC1+, Evaluation Type: Evaluation B (Post-1980)): active; positive | mutagenic call (Species/Cell Type: Human, Assay Type: Sister-chromatid exchange (SCE) in vitro, Assay Code: SC1T, Evaluation Type: Evaluation A (Pre-1980)): no conclusion | call (Species/Cell Type: Nonhuman, Assay Code: CCGT, Evaluation Type: Evaluation A (Pre-1980)): no conclusion | mutagenic call (Species/Cell Type: Nonhuman, Assay Type: Sister-chromatid exchange (SCE) in vitro, Assay Code: SC2T, Evaluation Type: Evaluation A (Pre-1980)): no conclusion | mutagenic call [1]: no conclusion | mutagenic call (Species/Cell Type: Saccharomyces cerevisiae, Assay Type: Mitotic recombination or gene conversion, Assay Code: YEH+, Evaluation Type: Evaluation A (Pre-1980)): active; positive | mutagenic call (Species/Cell Type: Saccharomyces cerevisiae, Assay Type: Reverse gene mutation, Assay Code: YER+, Evaluation Type: Evaluation A (Pre-1980)): active; positive | mutagenic call [2]: no conclusion

[CH3][Hg][CH3]
mutagenic call (Species/Cell Type: Mammalian oocytes or early embryo, Assay Type: Chromosome aberrations in vivo, Assay Code: CYO-, Evaluation Type: Evaluation A (Pre-1980)): inactive; negative | mutagenic call (Species/Cell Type: Rodents, Sex: Male, Assay Type: Dominant lethal test, Assay Code: DLTT, Evaluation Type: Evaluation A (Pre-1980)): no conclusion

CC1=C(C(C)O)c2cc3nc(cc4[nH]c(cc5[nH]c(cc1n2)c(C)c5CCC(=O)O)c(CCC(=O)O)c4C)C(C(C)O)=C3C (stereo unspecified)
mutagenic call [3]: no conclusion

CC(=O)OCCBr
mutagenic call [4]: active; positive

CCN(CC)c1ccc(C(=C2C=CC(=[N+](CC)CC)C=C2)c2ccc(S(=O)(=O)O)cc2S(=O)(=O)[O-])cc1
mutagenic call (Species/Cell Type: Mammalian polychromatic erythrocytes, Assay Type: Micronucleus test, chromosome aberrations, Assay Code: MNT+, Evaluation Type: Evaluation B (Post-1980)): active; positive

CCN(N=O)C(=O)Nc1ccccc1
mutagenic call [5]: active; positive

O=C1O[C@H]([C@@H](O)CO)C(O)=C1O
mutagenic call (Species/Cell Type: Human lymphocytes, Assay Type: Sister-chromatid exchange (SCE) in vitro, Assay Code: SCL+, Evaluation Type: Evaluation A (Pre-1980)): active; positive | mutagenic call (Species/Cell Type: Human lymphocytes, Assay Type: Sister-chromatid exchange (SCE) in vitro, Assay Code: SCLT, Evaluation Type: Evaluation B (Post-1980)): no conclusion | mutagenic call (Species/Cell Type: Human, Assay Type: Sister-chromatid exchange (SCE) in vitro, Assay Code: SC1+, Evaluation Type: Evaluation A (Pre-1980)): active; positive | mutagenic call [3]: no conclusion | mutagenic call [6]: no conclusion | mutagenic call (Species/Cell Type: Mouse, Sex: Male, Assay Type: Sperm morphology, Assay Code: SPI-, Evaluation Type: Evaluation A (Pre-1980)): inactive; negative | mutagenic call (Species/Cell Type: Nonhuman, Assay Type: Sister-chromatid exchange (SCE) in vitro, Assay Code: SC2+, Evaluation Type: Evaluation A (Pre-1980)): active; positive | mutagenic call [5]: active; positive | mutagenic call [1]: no conclusion | mutagenic call [2]: no conclusion

Nc1ccc(OCCO)c(N)c1
mutagenic call [7]: no conclusion

CCCO
mutagenic call (Species/Cell Type: Nonhuman, Assay Type: Sister-chromatid exchange (SCE) in vitro, Assay Code: SC2-, Evaluation Type: Evaluation A (Pre-1980)): inactive; negative

CCCCc1ccc(C(=O)O)nc1
mutagenic call (Species/Cell Type: Bacillus subtilis (H17 vs M45), Assay Type: Rec-assay, spot test, DNA effects (bacterial DNA repair), Assay Code: REW-, Evaluation Type: Evaluation A (Pre-1980)): inactive; negative

CN(N=O)C(=O)N[C@@H](C=O)[C@@H](O)[C@H](O)[C@H](O)CO
mutagenic call (Species/Cell Type: Arabidopsis species, Assay Type: Gene mutation, Assay Code: ARM+D, Dose Response: With dose response, Evaluation Type: Evaluation A (Pre-1980)): active; positive | mutagenic call (Species/Cell Type: Chinese hamster lung (V79) cells, Assay Type: Forward gene mutation at the HPRT or ouabain locus, Assay Code: V79+, Evaluation Type: Evaluation A (Pre-1980)): active; positive | mutagenic call [4]: active; positive | call [8]: active; positive | mutagenic call (Species/Cell Type: Nonhuman, Assay Type: Sister-chromatid exchange (SCE) in vivo, Assay Code: SC3+, Evaluation Type: Evaluation B (Post-1980)): active; positive | mutagenic call [9]: active; positive | mutagenic call (Species/Cell Type: Salmonella typhimurium, Assay Type: Forward and reverse gene mutation, body fluid assay, Assay Code: BFU+, Evaluation Type: Evaluation A (Pre-1980)): active; positive | mutagenic call (Species/Cell Type: Salmonella typhimurium, Assay Type: Forward and reverse gene mutation, host-mediated assay, Assay Code: HMA+, Evaluation Type: Evaluation A (Pre-1980)): active; positive

CCC[N+](=O)[O-]
mutagenic call [7]: no conclusion

N
mutagenic call [10]: no conclusion

CN(C)CCOc1ccc2c(c1)CC/C(=C\c1ncc([N+](=O)[O-])n1C)C2=O
mutagenic call (Species/Cell Type: Drosophila melanogaster, Assay Type: Sex-linked recessive lethal gene mutation, Assay Code: SRL+, Evaluation Type: Evaluation A (Pre-1980)): active; positive | mutagenic call (Species/Cell Type: Saccharomyces cerevisiae, Assay Type: Mitotic recombination or gene conversion, Assay Code: YEC+, Evaluation Type: Evaluation A (Pre-1980)): active; positive

Cc1occc(=O)c1O
mutagenic call (Species/Cell Type: Human lymphocytes, Assay Type: Sister-chromatid exchange (SCE) in vitro, Assay Code: SCL+D, Dose Response: With dose response, Evaluation Type: Evaluation B (Post-1980)): active; positive | mutagenic call (Species/Cell Type: Human, Assay Type: Sister-chromatid exchange (SCE) in vitro, Assay Code: SC1+D, Dose Response: With dose response, Evaluation Type: Evaluation B (Post-1980)): active; positive

CC(C)(C)N(CCCC(=O)O)N=O
mutagenic call [2]: no conclusion

O=C1c2ccccc2C(=O)c2c(NCCNCCO)ccc(NCCNCCO)c21
mutagenic call [5]: active; positive

Oc1cccc(O)c1
mutagenic call (Species/Cell Type: Allium cepa, Assay Type: Chromosome aberrations, Assay Code: ALC+, Evaluation Type: Evaluation A (Pre-1980)): active; positive | mutagenic call (Species/Cell Type: Human lymphocytes, Assay Type: Sister-chromatid exchange (SCE) in vitro, Assay Code: SCL-, Evaluation Type: Evaluation B (Post-1980)): inactive; negative | mutagenic call (Species/Cell Type: Human, Assay Type: Sister-chromatid exchange (SCE) in vitro, Assay Code: SC1-, Evaluation Type: Evaluation B (Post-1980)): inactive; negative | mutagenic call [6]: no conclusion | mutagenic call (Species/Cell Type: Neurospora crassa, Assay Type: Aneuploidy, chromosome aberrations, Assay Code: NEN-, Evaluation Type: Evaluation A (Pre-1980)): inactive; negative | mutagenic call (Species/Cell Type: Nonhuman, Assay Type: Sister-chromatid exchange (SCE) in vitro, Assay Code: SC2T, Evaluation Type: Evaluation B (Post-1980)): no conclusion | mutagenic call (Species/Cell Type: Nonhuman, Assay Type: Sister-chromatid exchange (SCE) in vivo, Assay Code: SC3-, Evaluation Type: Evaluation B (Post-1980)): inactive; negative | mutagenic call (Species/Cell Type: Salmonella typhimurium (one or more of the five standard strains: TA98, TA100, TA1535, TA1537, and TA1538), Assay Type: Histidine reverse gene mutation, Ames assay, Assay Code: SAL-, Evaluation Type: Evaluation A (Pre-1980)): inactive; negative

CCN(CC)c1ccc(N=Nc2ccccc2C(=O)O)cc1
mutagenic call [10]: no conclusion

COc1cc2c(c3oc4cccc(O)c4c(=O)c13)[C@@H]1C=CO[C@@H]1O2
mutagenic call (Species/Cell Type: Bacillus subtilis (H17 vs M45), Assay Type: Rec-assay, spot test, DNA effects (bacterial DNA repair), Assay Code: REWT, Evaluation Type: Evaluation A (Pre-1980)): no conclusion | mutagenic call (Species/Cell Type: Human diploid fibroblasts, Assay Type: Unscheduled DNA synthesis (UDS) in vitro, DNA effects, Assay Code: UDH+*, Activation: With metabolic activation, Evaluation Type: Evaluation A (Pre-1980)): active; positive | mutagenic call (Species/Cell Type: Neurospora crassa, Assay Type: Forward gene mutation, Assay Code: NEF+, Evaluation Type: Evaluation A (Pre-1980)): active; positive | mutagenic call (Species/Cell Type: Nonhuman, Assay Type: Chromosome aberrations in vitro, Assay Code: CY&+, Evaluation Type: Evaluation A (Pre-1980)): active; positive | call [8]: active; positive | mutagenic call (Species/Cell Type: Nonhuman, Assay Type: Sister-chromatid exchange (SCE) in vivo, Assay Code: SC3+D, Dose Response: With dose response, Evaluation Type: Evaluation B (Post-1980)): active; positive | mutagenic call (Species/Cell Type: Saccharomyces cerevisiae, Assay Type: Mitotic recombination or gene conversion, Assay Code: YEH+*, Activation: With metabolic activation, Evaluation Type: Evaluation A (Pre-1980)): active; positive | mutagenic call [9]: active; positive

CC1(C)O[C@@H]2C[C@H]3[C@@H]4C[C@H](F)C5=CC(=O)C=C[C@]5(C)[C@@]4(F)[C@@H](O)C[C@]3(C)[C@]2(C(=O)CO)O1
mutagenic call (Species/Cell Type: Syrian hamster embryo (SA7/SHE) cells, Assay Type: Cell transformation, viral enhanced, Assay Code: CT7+, Evaluation Type: Evaluation A (Pre-1980)): active; positive

O=C(O)[C@@H]1CCCN1
mutagenic call (Species/Cell Type: Salmonella typhimurium, Assay Type: Forward and reverse gene mutation, host-mediated assay, Assay Code: HMA-, Evaluation Type: Evaluation A (Pre-1980)): inactive; negative
